Measured values published in patent US20150176022A1, “HERBICIDE-RESISTANT SUNFLOWER PLANTS, POLYNUCLEOTIDES ENCODING HERBICIDE=RESISTANT ACETO HYDROXY ACID SYNTHASE LARGE SUBUNIT PROTEINS, AND METHODS OF USE” (priority 2013, published 2015).

Assays:
Type in all cases: in vivo, Helianthus annuus
[1] = system: sunflower IB920 (Manteiner Line, A205V); assay: Greenhouse whole-plant imazapir dose response (Example 8); details: 14 DAT
Experimental: (§1) A greenhouse study was conducted to quantify and contrast the imazapir sensitivity of the mutants A122T and A205V in different genetic backgrounds at the whole plant level in sunflower. Seeds of the different sunflower lines that were used in this study were obtained under field conditions.
(§2) Seeds were sown in Petri dishes and, after germination, plantlets were transplanted to pots of 10 cm of diameter in a potting media consisting of equal parts of vermiculite, soil and sand. Plants were grown in a greenhouse under natural light conditions supplemented with 400 W sodium halide lamps to provide a 16 hrs daylength. Day/night temperatures were 25 and 20° C., respectively. At the V2 stage 10 plants of each genotype were randomly assigned to each treatment consisting of […] imazapir doses (0, 40, 80, 160, 240, 320, 400 and 480 g ai/ha), and a zero-time biomass determination. Experiment was arranged as a randomized block design with a full factorial (sunflower line×treatment) arrangement of treatments and 10 replications.
(§3) On the day of herbicide application ten plants of each genotype were cut at the cotyledonal node and dried at 60° C. for 48 hrs zero-time for dried weight determination. […] Height was determined as the distance between the cotyledonal node and the apex of each plant. For root biomass determination, each plant was taken from the pot and the potting media was washed out from the roots. Above ground biomass data from each line were converted to biomass accumulation after application by subtracting the appropriate average zero-time biomass from each sample. Dry biomass data were converted to percentages of the untreated control plants within each line to allow direct comparisons between groups.

[2] = system: sunflower TH10 (Restorer Line, A205V); assay: as above; details: 14 DAT
Experimental: as §1, §2, §3

[3] = system: sunflower GIM 5-6 (Restorer Line, A122T); assay: as above; details: GIM5-6, 14 DAT
Experimental: as §1, §2, §3

[4] = system: sunflower TH11 (Hybrid, A122T); assay: as above; details: 14 DAT
Experimental: as §1, §2, §3

[5] = system: M2 plants of EMS-treated BTK47; assay: Selection of imidazolinone-resistant M2 plants (Example 1); details: approximately 590,000 M2 plants sprayed at V2-V4 stage; 80 g ai/ha; greenhouse
Experimental: BTK47, a Helianthus annuus L. breeding line, was chemically mutated as follows. Sixty thousand seeds of the BTK47 line were treated with a solution of ethyl methanesulfonate (EMS) for 15 hours. The treated seeds were then sown under field conditions on Dec. 16, 2002 at Nidera Experimental Station in Venado Tuerto, Santa Fe, Argentina. Approximately 30,000 M1 plants flowered and were covered with bags in order to self-pollinate each plant. Each plant was harvested and threshed by hand. On May 10, 2003 at Nidera Experimental Station in Formosa, 20 M2 seeds from each capitulum were sown under greenhouse conditions. Approximately 590,000 plants were sprayed at V2-V4 stage with imazapyr at a rate of 80 g ai/ha. […] M3 seeds from each of these eight plants were evaluated for their resistance to imazapyr. Out of these eight M3 families, one family (S4897) segregated for herbicide resistance at a ratio of 1 resistant (i.e., conferring tolerance to commercial rates of imidazolinone herbicides): 2 intermediate (i.e., partially resistant): 1 susceptible. Fully fertile resistant plants were self pollinated and harvested in order to propagate the line S4897.

CC(C)C1(C)N=C(c2ncccc2C(=O)O)NC1=O (stereo not shown) [imazapir, imazapyr]
biomass accumulation (dry biomass, % of untreated) ([1]; 0.5× (40 g ai/ha)): 93.9%
plant height (% of untreated) ([1]; 0.5× (40 g ai/ha)): 96.2%
root dry weight (% of untreated) ([1]; 0.5× (40 g ai/ha)): 94.0%
biomass accumulation (dry biomass, % of untreated) ([1]; 1× (80 g ai/ha)): 87.9%
plant height (% of untreated) ([1]; 1× (80 g ai/ha)): 80.0%
root dry weight (% of untreated) ([1]; 1× (80 g ai/ha)): 89.6%
biomass accumulation (dry biomass, % of untreated) ([1]; 2× (160 g ai/ha)): 58.8%
plant height (% of untreated) ([1]; 2× (160 g ai/ha)): 61.5%
root dry weight (% of untreated) ([1]; 2× (160 g ai/ha)): 50.7%
biomass accumulation (dry biomass, % of untreated) ([1]; 3× (240 g ai/ha)): 46.4%
plant height (% of untreated) ([1]; 3× (240 g ai/ha)): 40.9%
root dry weight (% of untreated) ([1]; 3× (240 g ai/ha)): 37.3%
biomass accumulation (dry biomass, % of untreated) ([1]; 4× (320 g ai/ha)): 35.5%
plant height (% of untreated) ([1]; 4× (320 g ai/ha)): 27.9%
root dry weight (% of untreated) ([1]; 4× (320 g ai/ha)): 32.8%
plant height (% of untreated) ([1]; 5× (400 g ai/ha)): 30.0%
root dry weight (% of untreated) ([1]; 5× (400 g ai/ha)): 25.4%
biomass accumulation (dry biomass, % of untreated) ([1]; 6× (480 g ai/ha)): 29.4%
root dry weight (% of untreated) ([1]; 6× (480 g ai/ha)): 19.4%
Phytotoxicity Index ([2]; 0.5× (40 g ai/ha)): 0
biomass accumulation (dry biomass, % of untreated) ([2]; 0.5× (40 g ai/ha)): 99.2%
plant height (% of untreated) ([2]; 0.5× (40 g ai/ha)): 99.2%
root dry weight (% of untreated) ([2]; 0.5× (40 g ai/ha)): 90.3%
Phytotoxicity Index ([2]; 1× (80 g ai/ha)): 0
biomass accumulation (dry biomass, % of untreated) ([2]; 1× (80 g ai/ha)): 85.0%
plant height (% of untreated) ([2]; 1× (80 g ai/ha)): 98.1%
root dry weight (% of untreated) ([2]; 1× (80 g ai/ha)): 69.9%
Phytotoxicity Index ([2]; 2× (160 g ai/ha)): 3.1
biomass accumulation (dry biomass, % of untreated) ([2]; 2× (160 g ai/ha)): 58.1%
plant height (% of untreated) ([2]; 2× (160 g ai/ha)): 63.6%
root dry weight (% of untreated) ([2]; 2× (160 g ai/ha)): 41.3%
Phytotoxicity Index ([2]; 3× (240 g ai/ha)): 3.9
biomass accumulation (dry biomass, % of untreated) ([2]; 3× (240 g ai/ha)): 48.1%
plant height (% of untreated) ([2]; 3× (240 g ai/ha)): 51.9%
root dry weight (% of untreated) ([2]; 3× (240 g ai/ha)): 42.8%
Phytotoxicity Index ([2]; 4× (320 g ai/ha)): 5.9
biomass accumulation (dry biomass, % of untreated) ([2]; 4× (320 g ai/ha)): 28.8%
plant height (% of untreated) ([2]; 4× (320 g ai/ha)): 27.5%
root dry weight (% of untreated) ([2]; 4× (320 g ai/ha)): 22.3%
Phytotoxicity Index ([2]; 5× (400 g ai/ha)): 6.9
biomass accumulation (dry biomass, % of untreated) ([2]; 5× (400 g ai/ha)): 27.4%
plant height (% of untreated) ([2]; 5× (400 g ai/ha)): 28.0%
root dry weight (% of untreated) ([2]; 5× (400 g ai/ha)): 22.7%
Phytotoxicity Index ([2]; 6× (480 g ai/ha)): 6.7
biomass accumulation (dry biomass, % of untreated) ([2]; 6× (480 g ai/ha)): 24.9%
plant height (% of untreated) ([2]; 6× (480 g ai/ha)): 29.3%
root dry weight (% of untreated) ([2]; 6× (480 g ai/ha)): 16.4%
biomass accumulation (dry biomass, % of untreated) ([3]; 0.5× (40 g ai/ha)): 100.0%
plant height (% of untreated) ([3]; 0.5× (40 g ai/ha)): 100.0%
root dry weight (% of untreated) ([3]; 0.5× (40 g ai/ha)): 100%
biomass accumulation (dry biomass, % of untreated) ([3]; 1× (80 g ai/ha)): 96.4%
plant height (% of untreated) ([3]; 1× (80 g ai/ha)): 100.0%
root dry weight (% of untreated) ([3]; 1× (80 g ai/ha)): 88.0%
biomass accumulation (dry biomass, % of untreated) ([3]; 2× (160 g ai/ha)): 97.7%
plant height (% of untreated) ([3]; 2× (160 g ai/ha)): 99.1%
root dry weight (% of untreated) ([3]; 2× (160 g ai/ha)): 90.0%
biomass accumulation (dry biomass, % of untreated) ([3]; 3× (240 g ai/ha)): 95.8%
plant height (% of untreated) ([3]; 3× (240 g ai/ha)): 98.1%
root dry weight (% of untreated) ([3]; 3× (240 g ai/ha)): 98.0%
biomass accumulation (dry biomass, % of untreated) ([3]; 4× (320 g ai/ha)): 90.8%
plant height (% of untreated) ([3]; 4× (320 g ai/ha)): 91.0%
root dry weight (% of untreated) ([3]; 4× (320 g ai/ha)): 80.0%
biomass accumulation (dry biomass, % of untreated) ([3]; 5× (400 g ai/ha)): 81.9%
plant height (% of untreated) ([3]; 5× (400 g ai/ha)): 94.3%
root dry weight (% of untreated) ([3]; 5× (400 g ai/ha)): 80.0%
biomass accumulation (dry biomass, % of untreated) ([3]; 6× (480 g ai/ha)): 78.0%
plant height (% of untreated) ([3]; 6× (480 g ai/ha)): 85.8%
root dry weight (% of untreated) ([3]; 6× (480 g ai/ha)): 65.8%
Phytotoxicity Index ([4]; 0.5× (40 g ai/ha)): 0.4
biomass accumulation (dry biomass, % of untreated) ([4]; 0.5× (40 g ai/ha)): 96.6%
plant height (% of untreated) ([4]; 0.5× (40 g ai/ha)): 100.4%
root dry weight (% of untreated) ([4]; 0.5× (40 g ai/ha)): 100%
Phytotoxicity Index ([4]; 1× (80 g ai/ha)): 0.4
biomass accumulation (dry biomass, % of untreated) ([4]; 1× (80 g ai/ha)): 93.9%
plant height (% of untreated) ([4]; 1× (80 g ai/ha)): 99.9%
root dry weight (% of untreated) ([4]; 1× (80 g ai/ha)): 99.0%
Phytotoxicity Index ([4]; 2× (160 g ai/ha)): 0.4
biomass accumulation (dry biomass, % of untreated) ([4]; 2× (160 g ai/ha)): 81.6%
plant height (% of untreated) ([4]; 2× (160 g ai/ha)): 92.0%
root dry weight (% of untreated) ([4]; 2× (160 g ai/ha)): 86.1%
Phytotoxicity Index ([4]; 3× (240 g ai/ha)): 0.5
biomass accumulation (dry biomass, % of untreated) ([4]; 3× (240 g ai/ha)): 75.8%
plant height (% of untreated) ([4]; 3× (240 g ai/ha)): 90.5%
root dry weight (% of untreated) ([4]; 3× (240 g ai/ha)): 81.5%
Phytotoxicity Index ([4]; 4× (320 g ai/ha)): 1.0
biomass accumulation (dry biomass, % of untreated) ([4]; 4× (320 g ai/ha)): 75.0%
plant height (% of untreated) ([4]; 4× (320 g ai/ha)): 90.8%
root dry weight (% of untreated) ([4]; 4× (320 g ai/ha)): 72.6%
Phytotoxicity Index ([4]; 5× (400 g ai/ha)): 2.0
biomass accumulation (dry biomass, % of untreated) ([4]; 5× (400 g ai/ha)): 60.1%
plant height (% of untreated) ([4]; 5× (400 g ai/ha)): 84.4%
root dry weight (% of untreated) ([4]; 5× (400 g ai/ha)): 68.9%
Phytotoxicity Index ([4]; 6× (480 g ai/ha)): 2.5
biomass accumulation (dry biomass, % of untreated) ([4]; 6× (480 g ai/ha)): 59.6%
plant height (% of untreated) ([4]; 6× (480 g ai/ha)): 84.4%
root dry weight (% of untreated) ([4]; 6× (480 g ai/ha)): 45.3%
plants surviving the herbicide treatment [5]: Eight plants survived
